From patent publication US20240164267A1, “GENETIC MECHANISM TO ENHANCE HEALTHY STEROLS AND HARD ENDOSPERM IN SEEDS” (Iowa State University Research Foundation, Inc., priority 2022, published 2024)

How the values were obtained:
[1] = tested on: Zmcyp710a8-1 mutant root metabolites; assay: Exogenous stigmasterol feeding of Zmcyp710a8-1 mutant, metabolite levels in root tissue (GC/MS); type: in vivo, maize; conditions: root tissue of Zmcyp710a8-1 null mutant with exogenous stigmasterol feeding, compared with W22
Text: Relative metabolite levels in the two maize mutants compared to their wild type are shown as fold changes in Root and Shoot. […] Asterisks indicate statistical significance by Students t-test compared to Zmcyp710a8-1. *P<0.05 **P<0.01 ***P<0.001.
To identify cellular metabolites influenced by stigmasterol, non-targeted GC/MS metabolite analysis of roots and shoots of maize Zmcyp710a8 and wild type was used. A total of 29 molecular features (13 known and 16 unknown molecular features) were identified in roots and 31 features (17 known and 14 unknown molecular features) in shoots (FIG. 7). The concentration of molecular features correlated with stigmasterol content among genotypes in maize and the features belonged to similar classes including sterol, amino acid, primary metabolism, and unknown features in roots and shoots (FIG. 7).
Since changes in metabolites among the genotypes correlated with stigmasterol content, it was reasoned that exogenous stigmasterol may reverse the metabolite levels in Zmcyp710a8-1 mutant to wild type levels.

ZmHMGR mRNA = assay: Exogenous sterol feeding of maize seedlings, relative mRNA quantification of ZmHMGR; type: in vivo; conditions: for ZmHMGR mRNA: wild type W22 roots
ZmSMT2 mRNA = assay: Exogenous sterol feeding of maize seedlings, relative mRNA quantification of ZmSMT2; type: in vivo; conditions: for ZmSMT2 mRNA: wild type W22 roots
Protocol: FIG. 6C-D show relative mRNA quantification of ZmHMGR and ZmSMT2 genes in Zmcyp710a8-1 background in response to various sterols (10 μM) for 4 hours in roots (FIG. 6C) and in shoots (FIG. 6D). ZmACTIN served as the reference gene for normalization. Data are means±SD. Asterisks indicate statistical significance by Students t-test compared to 0 h in FIG. 6A and to Mock in FIG. 6B, FIG. 6C, and FIG. 6D. *P<0.05 **P<0.01 ***P<0.001; ns, not significant.

[2] = roots and shoots of Zmcyp710a8-1, 10 μM sterol, 4 hours
[3] = 10 μM sterol feeding, after 4 and 8 h

Compound | levels of selected metabolites (sitosterol, campesterol, myo-inositol) [1] | ZmHMGR mRNA levels (ZmHMGR mRNA; [2]) | ZmHMGR mRNA (ZmHMGR mRNA; [3]) | ZmHMGR mRNA (ZmHMGR mRNA; 10 μM stigmasterol, after 8 h) | ZmSMT2 mRNA levels (ZmSMT2 mRNA; [2]) | ZmSMT2 mRNA (ZmSMT2 mRNA; [3]) | ZmSMT2 mRNA (ZmSMT2 mRNA; 10 μM stigmasterol, after 8 h)
CC[C@H](/C=C/[C@@H](C)[C@H]1CC[C@H]2[C@@H]3CC=C4C[C@@H](O)CC[C@]4(C)[C@H]3CC[C@]12C)C(C)C [stigmasterol] | shifted the levels of sitosterol, campesterol, and myo-inositol toward W22 levels | higher | induction | remained elevated | higher | induction | slightly decreased
CC[C@H](CC[C@@H](C)[C@H]1CC[C@H]2[C@@H]3CC=C4C[C@@H](O)CC[C@]4(C)[C@H]3CC[C@]12C)C(C)C [sitosterol] |  |  | did not have a significant impact |  |  | did not have a significant impact | 
